Reference: patent US9750844B2, “Composition for use in wound healing in burns” (ACADEMIA SINICA, priority 2014, dated 2017)
“Also recorded” adds a separate entry of the source.

Tests used:
MRSA [1] = test: MRSA-infected full-thickness skin excision wound in mice: survival, wound closure, angiogenesis; type: in vivo, Balb/C mice; conditions: for survival of infected mice: wound infected with 10^6 CFU MRSA, topical treatment
Description: Six to eight week old Balb/C male mice were used for the examples. MRSA culture and quantification were carried out, and suspensions were serially diluted and spread onto LB-agar plates in duplicate for 24 hours. After the incubation period, colony forming units (CFU) were counted, averaged, and expressed as CFU/ml. All animal handing procedures were in accordance with National Taiwan Ocean University (NTOU) guidelines. All procedures were approved by the Animal Care and Use Committee of NTOU.
The mice were housed individually to prevent fighting and further damage to the wounds, and were given ad libitum access to food and water. The mice were maintained under 12 h/12 h light/dark cycle at a room temperature, and adapted to the environment for at least a week before used in the experiments. Each mouse's hair was removed from the back by shaving, and a full-thickness excisional wound (1 cm in diameter) was created on the back of the mice.
(§1) Each wound was inoculated with 50 μl of broth mix containing 10^6 CFU of the indicated microorganism. The wounds were treated with the antimicrobial peptide according to the invention and collagen at 5 min after inoculation. At 30 min after treatment, wounds were covered with Tegaderm to maintain uniformity and to prevent the loss of the materials as treated. The wounds were examined at Day 3, 7, and 14 after the wounds were created, and the non-contaminated wounds were examined every other day. The wounds were examined to assess the transitions from inflammatory to regenerative and regenerative to resolving phases of the wound healing. At the end of the examination period, the animals were euthanized by CO2 inhalation and the wounds were assessed. For each experiment, four individuals were examined in each group at each time point. Each wound was measured and then removed from the animal, with unwounded skin taken from the contralateral abdomen as a control.
Tracings were taken immediately after injury. For uncontaminated wounds, wound size was determined every second day. For contaminated wounds, mice were euthanized at Day 3, 7, 14, or 17, and tracings of the wound edges were made. Wound areas were determined using the Macintosh Adobe Photoshop program and histological examination. The percentage of wound contraction was calculated as follows: % Wound contraction=(A0−At)/A0×100%
where A0 is the area of the original wound, and At is the area of the wound on Day 3, 7, 14, and 17.
Multidrug-resistant strains of Staphylococcus aureus (MRSA) commonly associated with human wound infections were selected to generate a polymicrobial solution. The initial inoculum was prepared by culturing aerobic bacteria in Tryptic Soy Broth (TSB) overnight at 37° C. Broths were subsequently centrifuged at 1000 rpm for 15 min, and resuspended in TSB with 15% glycerol, or chopped meat extract with 15% glycerol (for aerobic bacteria). The concentration was adjusted to 10^6 cfu/50 μl, and stored at −80° C. Prior to wound application, the bacterial stocks were re-mixed. Microbial load was determined by direct plating, followed by freeze-thaw and cfu enumeration, in parallel with inoculations. The inoculum was delivered by sterile pipettes to the center of open wounds. After euthanization (at Day 0, 3, 7, 14, or 17), two bisected tissue segments were used to determine microbial load using the protocol for human wound biopsy culture, as stated in the UPMC Clinical Microbiology Laboratory Procedure Manual. Tissue biopsies were weighed and placed in 1.5 ml of TSB, and then homogenized in a tissue grinder. A single drop of the homogenate was placed on the slide and Gram stained for rough assessment (if one or more bacteria are present within the oil immersion field, the expected count in the tissue is at least 10^5 cfu/g). Serial dilutions (1:10 (0.1+0.9)) of the tissue homogenate were made using distilled water. The cfu/g of tissue was calculated as follows: cfu/g=plate count (1/dilution)×10/wt. of homogenized tissue. […]

MCP-1, IL-6, TNF = test: Serum cytokine/chemokine ELISA in MRSA-infected wounded mice; type: in vivo, Balb/C mice; conditions: Epi-1 study, 24 h post-treatment
Source text: (§2) Elisa kits for […] (Cat no. 555260, BD Biosciences, CA, USA), IL-6 (Cat no. 555240, BD Biosciences, CA, USA), and TNF (Cat no. 558534, BD Biosciences, CA, USA) were used to determine cytokine levels. Antibodies against macrophages (Cat no. 550282, BD Biosciences, CA, USA), monocytes (Cat no. 101301, BioLegend, London, UK), and VEGF (Cat no. 550549, BD Biosciences, CA, USA) were used for immunohistochemistry (IHC). Fish scale collagen peptides (FSCPs) were isolated from tilapia (Oreochromis sp.) by the Seafood Technology Division, Fisheries Research Institute, Council of Agriculture, Taiwan.
as §1

MRSA [2] = test: Assessment of wound infection: bacterial load (CFU) and Gram staining of wound tissue; type: in vivo, Balb/C mice; conditions: for Gram staining of MRSA / Gram-positive microorganisms in wound sections: Day 3 after inoculation
Description: Tissue samples were homogenized in PBS. Serially diluted aliquots of homogenate were cultured on Luria-Bertani agar after incubation for 18 h at 37° C., and cfu/g tissue were subsequently calculated. A stable wound infection was defined as 10^6 cfu/g tissue.
(§3) Full-thickness tissue was harvested for microbial and histological analysis. Samples from each experiment were fixed in 4% buffered paraformaldehyde. Tissue samples were stained with hematoxylin/eosin or Giemsa, and immunohistochemistry (IHC) was analyzed by three independent investigators. Images were taken with a BX-51 microscope (Olympus, Japan).
Multidrug-resistant strains of Staphylococcus aureus (MRSA) commonly associated with human wound infections were selected to generate a polymicrobial solution. The initial inoculum was prepared by culturing aerobic bacteria in Tryptic Soy Broth (TSB) overnight at 37° C. Broths were subsequently centrifuged at 1000 rpm for 15 min, and resuspended in TSB with 15% glycerol, or chopped meat extract with 15% glycerol (for aerobic bacteria). […] Prior to wound application, the bacterial stocks were re-mixed. Microbial load was determined by direct plating, followed by freeze-thaw and cfu enumeration, in parallel with inoculations. The inoculum was delivered by sterile pipettes to the center of open wounds. After euthanization (at Day 0, 3, 7, 14, or 17), two bisected tissue segments were used to determine microbial load using the protocol for human wound biopsy culture, as stated in the UPMC Clinical Microbiology Laboratory Procedure Manual. Tissue biopsies were weighed and placed in 1.5 ml of TSB, and then homogenized in a tissue grinder. A single drop of the homogenate was placed on the slide and Gram stained for rough assessment (if one or more bacteria are present within the oil immersion field, the expected count in the tissue is at least 10^5 cfu/g). Serial dilutions (1:10 (0.1+0.9)) of the tissue homogenate were made using distilled water. The cfu/g of tissue was calculated as follows: cfu/g=plate count (1/dilution)×10/wt. of homogenized tissue.

[3] = tested on: monocytes, macrophages, VEGF; test: Histology (H&E, Giemsa) and immunohistochemistry of wound tissue; type: in vivo, Balb/C mice
Source text: as §2, §3

MRSA [4] = test: Antimicrobial MIC/MBC assay against MRSA in vitro; type: cell-based, Staphylococcus aureus; conditions: bacterial proliferation by optical density at 600 nm
Description: Minimum inhibitory concentration (MIC) and minimum bactericidal concentration (MBC) antimicrobial assays were performed. For MIC assessment, the antimicrobial peptide, Epi-1, was diluted to final concentrations of […], or 0.78 μg/ml. Twenty microliters of each dilution were mixed in a microtiter plate well with […] of the appropriate bacterial indicator suspension, and 160 μl of Trypticase Soy Broth (TSB) for S. aureus, to a total volume of 200 μl. Three replicates were examined for each S. aureus strain, compound, and concentration. Positive controls contained water instead of compounds, and negative controls contained compounds without bacterial suspensions. Microbial growth was automatically determined by optical density measurement at 600 nm (Bioscreen C, Labsystem, Helsinki, Finland). Microplates were incubated at 25° C. for plant pathogens and at 37° C. for food-borne bacterial strains. Absorbance readings were taken at hourly intervals over a 48 h period. Plates were shaken for 20 seconds before each measurement. The experiment was repeated twice.

| Compound | wound closure time (MRSA [1]; contaminated wounds, GE33 study (FIG. 8B)) | survival of infected mice (MRSA [1]) | induction of IL-6 in serum (MCP-1, IL-6, TNF) | induction of TNF-α in serum (MCP-1, IL-6, TNF) | Gram staining of MRSA / Gram-positive microorganisms in wound sections (MRSA [2]) | wound flora at Day 3 (MRSA [2]; initial inoculum approximately 10^4 cfu/10 μl) | healing and re-epithelialization of excision region (MRSA [1]; wound infected with 10^6 cfu MRSA, 3, 7, 14 days) | colony counts between Days 7 and 17 (MRSA [2]; MRSA-contaminated wounds) | overall epidermal maturation, keratinization and regeneration of the epithelium ([3]; histology of wounds) | antibacterial efficacy against MRSA in vitro (MRSA [4]) | wound closure (MRSA [1]; MRSA-infected wound, compared to vancomycin-treated mice and control mice) | new blood vessel formation (angiogenesis) (MRSA [1]; MRSA-infected wounded skin, light microscopy) | MCP-1 induction by MRSA in serum (MCP-1, IL-6, TNF) | MRSA CFU in cultured injured skin sections (MRSA [2]; 24 h after treatment, compared to the control) | bacterial counts in cultured skin sections (CFU) (MRSA [2]; MRSA-infected mice, compared with vancomycin) | IHC staining of VEGF ([3]; infected wound, Day 3) | IHC staining/infiltration of macrophages ([3]; infected wound, Day 3) | IHC staining/infiltration of monocytes ([3]; infected wound, Day 3) | accumulation/recruitment of monocytes (Giemsa staining) ([3]; wounded area tissue sections, MRSA-infected) |
| --- | --- | --- | --- | --- | --- | --- | --- | --- | --- | --- | --- | --- | --- | --- | --- | --- | --- | --- | --- |
| COc1cccc(OC)c1C(=O)N[C@@H]1C(=O)N2[C@@H]1SC(C)(C)[C@@H]2C(=O)O [methicillin] | lack of closure | died within four days | unaffected | unaffected | completely abolished | about 10^8 cfu/10 μl |  |  |  |  |  |  |  |  |  |  |  |  |  |
| CN[C@H](CC(C)C)C(=O)N[C@H]1C(=O)N[C@@H](CC(N)=O)C(=O)N[C@H]2C(=O)N[C@H]3C(=O)N[C@H](C(=O)N[C@H](C(=O)O)c4cc(O)cc(O)c4-c4cc3ccc4O)[C@H](O)c3ccc(c(Cl)c3)Oc3cc2cc(c3O[C@@H]2O[C@H](CO)[C@@H](O)[C@H](O)[C@H]2O[C@H]2C[C@](C)(N)[C@H](O)[C@H](C)O2)Oc2ccc(cc2Cl)[C@H]1O [vancomycin] |  | survived | significantly decreased | significantly decreased |  |  | re-epithelialization observed | decreased | impairment in overall epidermal maturation |  |  |  |  |  |  |  |  |  |  |
| Epinecidin-1 (GFIFHIIKGLFHAGKMIHGLV; grouper) [Epi-1] |  |  | significantly decreased | significantly decreased | completely abolished; also recorded: more efficient at attenuating MRSA infection than vancomycin |  |  |  |  | good antibacterial efficacy | faster | more prominent | decreased | significantly reduced | significantly lower | clearly reduced | clearly reduced | clearly reduced | reduced their recruitment |
